What was measured:
[1] = Chemical stability (thermal, aqueous solution); format: physicochemical; conditions: free base, monitored with 1H-NMR
Text: Most of these compounds are relatively stable. […] Its chemical behaviour resembles that of known 2-oxazoline derivatives. […] The formation of the decomposition products can be monitored with ^1H-NMR by inspection at two regions δ 3.3-3.5 (appearance of two doublets) and 1.9-2.0 ppm (appearance of two additional singlets).
The expected decomposition pattern (when e.g., X is O and Y is N) involves opening of the oxazoline ring to form both amide and ester as shown in Scheme E, in which the quinuclidine-derived compounds are depicted illustratively. The formation of two new singlets at δ 1.9-2.0 ppm as expected for R = Me of these two structures are in agreement with this supposition. [drawing 32]
Ring opening is much faster in the presence of dilute hydrochloric acid. […] The tendency to decomposition of such salts complicates the optical separation of compounds such as AF125 and AF123. However, this problem can be overcome by using the method described for the optical separation of the enantiomers of AF125, or alternatively the amino-alcohols such as 3-aminomethylquinuclidin-3-ol can be resolved and the separated enantiomers can then be cyclized using an ester or imidate as already described. In yet another alternative the N-acyl derivatives of (e.g.) 3-aminomethylquinuclidin-3-ol can be resolved and the separated enantiomers can then be cyclized per se as shown in Scheme K: [drawing 33] […]

M2 muscarinic receptors = molecular target: T1, M2 muscarinic receptors (Rattus norvegicus, UniProt P10980); test: Displacement of 3H-QNB from rat cerebellum, 50 mM phosphate buffer; format: binding; conditions: cerebellum
T1 construct: displacing from rat brain homogenates, cerebellum or frontal cortex; from tissue; host or cells: rat cerebellum homogenates
T1 sequence (P10980 1-466): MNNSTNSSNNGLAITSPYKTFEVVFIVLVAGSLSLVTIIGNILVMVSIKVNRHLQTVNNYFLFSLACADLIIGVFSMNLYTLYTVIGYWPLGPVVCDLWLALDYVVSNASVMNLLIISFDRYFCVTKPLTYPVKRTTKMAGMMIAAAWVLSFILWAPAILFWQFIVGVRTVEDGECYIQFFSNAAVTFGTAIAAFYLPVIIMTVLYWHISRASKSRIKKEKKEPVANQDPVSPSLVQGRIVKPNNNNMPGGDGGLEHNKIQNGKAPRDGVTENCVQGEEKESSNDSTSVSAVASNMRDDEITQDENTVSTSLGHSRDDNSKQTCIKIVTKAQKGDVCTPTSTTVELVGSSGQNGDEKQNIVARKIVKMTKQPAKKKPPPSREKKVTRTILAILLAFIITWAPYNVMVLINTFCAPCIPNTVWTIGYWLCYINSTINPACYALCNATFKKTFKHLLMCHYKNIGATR

M1 muscarinic receptor [2] = molecular target: T2, M1 muscarinic receptor (Rattus norvegicus, UniProt P08482); test: Displacement of 3H-PZ from rat cerebral cortex, 10 mM phosphate buffer; format: binding; design: from tissue; host or cells: rat cerebral cortex homogenates; conditions: for % H / Ki: cortex, Table 4; for Ki: read-out: 3H-PZ-Binding KH (a)
T2 sequence (P08482 1-460): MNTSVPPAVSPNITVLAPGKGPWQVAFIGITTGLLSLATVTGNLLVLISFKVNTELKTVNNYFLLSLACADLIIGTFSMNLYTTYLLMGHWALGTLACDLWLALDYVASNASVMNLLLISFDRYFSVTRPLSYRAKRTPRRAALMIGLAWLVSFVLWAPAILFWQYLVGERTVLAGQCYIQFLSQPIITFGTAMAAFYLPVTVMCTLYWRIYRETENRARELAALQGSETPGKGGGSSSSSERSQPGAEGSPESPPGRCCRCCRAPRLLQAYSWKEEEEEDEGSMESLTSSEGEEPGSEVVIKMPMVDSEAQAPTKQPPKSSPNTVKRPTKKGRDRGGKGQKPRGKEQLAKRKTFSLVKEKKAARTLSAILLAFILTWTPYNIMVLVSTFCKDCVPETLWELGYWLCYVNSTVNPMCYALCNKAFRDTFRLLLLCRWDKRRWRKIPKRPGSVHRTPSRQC

[3] = test system: Male white mice of the CD-1 strain; test: Pharmacodynamic profile and general toxicity, Part B (signs, mortality, LD50); format: in vivo; conditions: Table 10
Text: Male white mice of the CD-1 strain (Charles River, UK), within the body weight range of 18-26 g, were used throughout this study, carried out on AF123, AF125 and AF125(N).
Furthermore, these initial trials clearly established that the major signs of reactions to treatment consisted primarily of signs characteristic for potential cholinomimetic activity of the test material, such as tremors, salivation, lacrimation, diarrhea, analgesia, hypothermia and vasodilation. […]

m3 receptors = m3 receptors (Rattus norvegicus, UniProt P08483); test: PI hydrolysis in CHO cells transfected with m3 receptors; format: cell-based; conditions: CHO m3; tested at 1mM
Sequence of m3 receptors (P08483 whole entry): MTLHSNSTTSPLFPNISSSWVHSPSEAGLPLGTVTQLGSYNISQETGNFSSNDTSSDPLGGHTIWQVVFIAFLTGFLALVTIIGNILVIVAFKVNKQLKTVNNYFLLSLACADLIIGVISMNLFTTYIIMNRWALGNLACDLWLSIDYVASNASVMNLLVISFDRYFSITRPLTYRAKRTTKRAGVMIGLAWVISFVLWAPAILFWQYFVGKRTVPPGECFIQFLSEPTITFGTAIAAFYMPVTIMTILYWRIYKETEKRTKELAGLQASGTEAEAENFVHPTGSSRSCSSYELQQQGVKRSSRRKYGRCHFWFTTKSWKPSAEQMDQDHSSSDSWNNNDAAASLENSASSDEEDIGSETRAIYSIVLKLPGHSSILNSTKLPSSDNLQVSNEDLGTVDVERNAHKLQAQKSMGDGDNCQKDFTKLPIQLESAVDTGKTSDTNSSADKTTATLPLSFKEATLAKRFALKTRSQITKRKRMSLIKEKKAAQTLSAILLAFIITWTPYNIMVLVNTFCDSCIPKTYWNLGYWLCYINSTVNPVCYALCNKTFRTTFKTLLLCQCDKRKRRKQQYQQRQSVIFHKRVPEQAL
Experimental: (§1) The new compounds AF150, AF151, AF150(S) and AF125 were assayed for their ability to stimulate PI in CHO cells transfected with m1 and m3 receptors, respectively (Buck and Fraser, loc cit), and in cultured human neuroblastoma cells, line SK-N-SH, which express mainly the m3 subtype, but not the m1 subtype (Pinkas-Kramarski et al, Neurosci. Lett. 188: 335-340, 1990; Luthin et al Mol. Pharmacol. 34: 327-333, 1988). These compounds were also assayed on cultured PC12 cells which express mainly m4 subtype receptors and are coupled to inhibition of AC activity (Pinkas-Kramarski et al, loc cit).
(§2) Stimulation of PI breakdown was assayed using the method described by Stein et al (EMBO J. 7: 3031-3035, 1988), and modulation of AC activity was assayed by the method of Stein et al, loc cit and Pinkas-Kramarski et al (FEBS Lett., 239: 174-178, 1988). […]

M1 muscarinic receptor [4] = molecular target: T2, M1 muscarinic receptor; test: Displacement of 3H-PZ from cortical binding sites, Tris/Mn buffer, with and without GppNHp; design: from tissue; host or cells: rat cerebral cortex homogenates
Text: The binding of agonists to M1 muscarinic receptors and the effect of guanylyl imidophosphate (GppNHp). Agonists are known to be coupled with guanine nucleotide binding proteins (G proteins).
Non-hydrolyzable guanine nucleotides such as GppNHp dissociate the G protein from the receptor and decrease the affinity of the receptor for agonists but not for antagonists. […] Molec.
Under these conditions agonists of high efficacy ("full agonists") bind directly to the M1 receptor subtype with two affinities. […] The ratio of low and high affinities (KL/KH) of the M1 receptor may predict the relative efficacies of agonists to activate putative M1 receptor-mediated second messenger systems.
KH, KL, %H and %L are the apparent inhibition constants of the tested ligands for the high and low affinity sites, respectively. G is GppNHp (guanylyl imidodiphosphate), and was used in 0.1 mM concentration. Displacement of ^3H-PZ from cortical binding sites was performed in Tris/Mn buffer (pH 7.4) for one hour at 25°C; the buffer included 1 mM EDTA and 2mM Mn^++ ions. […] The binding data were analyzed using a GraphPAD program and were fitted to one or two components. Values are means from 1-3 experiments carried out in triplicates.

[5] = molecular target: T3, m4 subtype receptors (PC12 cells) (Rattus norvegicus, UniProt P08485); test: Inhibition of adenylate cyclase activity in PC12 cells; format: cell-based
T3 construct: endogenous in cells; host or cells: PC12 cells
T3 sequence (P08485 1-478): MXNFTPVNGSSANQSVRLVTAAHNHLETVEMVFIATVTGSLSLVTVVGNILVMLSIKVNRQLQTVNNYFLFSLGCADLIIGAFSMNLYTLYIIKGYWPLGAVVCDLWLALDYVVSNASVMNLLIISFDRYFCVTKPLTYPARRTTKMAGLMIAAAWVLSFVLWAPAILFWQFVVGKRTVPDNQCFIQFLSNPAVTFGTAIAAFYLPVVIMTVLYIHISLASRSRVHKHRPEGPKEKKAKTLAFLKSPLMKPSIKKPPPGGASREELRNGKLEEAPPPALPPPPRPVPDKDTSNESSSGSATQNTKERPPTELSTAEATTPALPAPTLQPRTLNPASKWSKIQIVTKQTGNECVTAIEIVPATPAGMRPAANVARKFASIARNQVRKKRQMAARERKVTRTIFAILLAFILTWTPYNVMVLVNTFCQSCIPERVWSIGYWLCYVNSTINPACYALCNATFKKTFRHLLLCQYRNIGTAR
Experimental: as §1, §2

[6] = test system: CA1 neurons in the hippocampal slice; test: Electrophysiological evaluation in rat hippocampal slices
Experimental: In general terms the effects of microdrops of AF150, ACh and PZ were applied to rat hippocampal cells recorded intracellularly. The exact concentrations of the drug at the receptor sites are not known, using this method. However, this method has an advantage over the perfusion method, in that it gives a more correct picture from the electrophysiological point of view (Segal, loc cit).
Intracellular responses to AF150 of CA1 neurons in the hippocampal slice were recorded, using the method of Segal. Small hyperpolarizing current pulses (current traces not shown) were alternated with stimulation of the Schaffer-commissural afferents producing postsynaptic potentials.

[7] = molecular target: T4, m3 subtype (SK-N-SH cells) (Homo sapiens, UniProt P20309); test: PI hydrolysis in SK-N-SH neuroblastoma cells; format: cell-based
T4 construct: endogenous in cells; host or cells: SK-N-SH human neuroblastoma cells
T4 sequence (P20309 whole entry): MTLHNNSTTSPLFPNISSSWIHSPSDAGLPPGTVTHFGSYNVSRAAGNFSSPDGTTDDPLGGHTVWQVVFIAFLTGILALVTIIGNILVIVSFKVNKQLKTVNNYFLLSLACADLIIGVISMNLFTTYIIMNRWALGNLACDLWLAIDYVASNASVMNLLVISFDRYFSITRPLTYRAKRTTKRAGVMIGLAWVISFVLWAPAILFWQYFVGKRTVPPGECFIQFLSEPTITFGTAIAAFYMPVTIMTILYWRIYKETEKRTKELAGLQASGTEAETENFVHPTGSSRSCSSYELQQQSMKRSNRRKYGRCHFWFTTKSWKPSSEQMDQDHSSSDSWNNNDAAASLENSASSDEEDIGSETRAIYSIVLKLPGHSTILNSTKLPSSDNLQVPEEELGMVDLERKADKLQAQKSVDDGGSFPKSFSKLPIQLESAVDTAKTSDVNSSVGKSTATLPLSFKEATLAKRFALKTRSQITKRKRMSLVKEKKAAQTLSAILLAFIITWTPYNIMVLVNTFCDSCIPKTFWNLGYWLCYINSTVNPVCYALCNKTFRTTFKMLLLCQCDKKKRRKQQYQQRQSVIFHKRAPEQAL
Experimental: as §1, §2

muscarinic receptors = test: (-)3H-QNB binding to rat cerebral cortex homogenates with and without Cu++ treatment
m1 receptors = molecular target: T5, m1 receptors (Rattus norvegicus, UniProt P08482); test: PI hydrolysis in CHO cells transfected with m1 receptors; format: cell-based
T5 construct: expressed in transfected cells; host or cells: CHO cells
T5 sequence (P08482 1-460): T2 sequence (P08482 1-460)

M1 muscarinic receptor [8] = molecular target: T2, M1 muscarinic receptor; test: Displacement of 3H-QNB from rat cerebral cortex, 50 mM phosphate buffer; format: binding; conditions: cortex, Table 5
[9] = 400 mg/kg p.os, animals affected/treated

Q: With `CCC1=NCC2(CN3CCC2CC3)O1` (racemic) [AF123, 2-Ethyl spiro(1,3 oxazoline 5,3')quinuclidine] as the molecule, how does the “decomposition in aqueous solution” value [1] read?
A: same pattern of decomposition

Q: And the Ki (M2 muscarinic receptors; 3H-QNB-Binding KH (c), Table 4)?
A: 3900 nM

Q: And the “% H” value (M2 muscarinic receptors; Table 4)?
A: 100%

Q: And the “RATIOS c:a” value (M1 muscarinic receptor [2]; KH cerebellum (3H-QNB) : KH cortex (3H-PZ))?
A: 3.0

Q: What about the “% H” value (M1 muscarinic receptor [2]) of the same molecule?
A: 100%

Q: And the Ki (M1 muscarinic receptor [2])?
A: 1300 nM

Q: What about the Mortality no. ([3]; 50 mg/kg i.v.) of the same molecule?
A: 0/5

Q: And the Mortality no. ([3]; 100 mg/kg i.v.)?
A: 5/5

Q: What about the Mortality time ([3]; 100 mg/kg i.v.) of the same molecule?
A: 1 min

Q: And the “Convulsive seizure (Con)” value ([3]; 100 mg/kg i.v., animals affected/treated)?
A: 5/5

Q: And the Mortality no. ([3]; 200 mg/kg i.v.)?
A: 5/5

Q: And the Mortality time ([3]; 200 mg/kg i.v.)?
A: immed

Q: And the Mortality no. ([3]; 200 mg/kg p.os)?
A: 0/5

Q: What about the Mortality time ([3]; 200 mg/kg p.os) of the same molecule?
A: 3 min

Q: What about the “Tremors (Tre)” value ([3]; 200 mg/kg p.os, animals affected/treated) of the same molecule?
A: 4/5

Q: What about the Mortality no. ([3]; 400 mg/kg p.os) of the same molecule?
A: 5/5

Q: What about the Mortality time ([3]; 400 mg/kg p.os) of the same molecule?
A: 3 min

Q: And the “Convulsive seizure (Con)” value [3, 9]?
A: 5/5

Q: And the “Respiratory distress (Res)” value [3, 9]?
A: 5/5

Q: And the “Tremors (Tre)” value [3, 9]?
A: 5/5

Q: With `CC1OC2(CS1)CN1CCC2CC1` (stereo not drawn) [AF102B, cis-2-methylspiro(1,3-oxathiolane-5',3)quinuclidine, reference compound] as the molecule, how does the “PI (phosphoinositides hydrolysis)” value (m3 receptors) read?
A: -

Q: And the Ki (M2 muscarinic receptors; 3H-QNB-Binding KH2 (c), Table 5)?
A: 5900 nM

Q: And the Ki (M2 muscarinic receptors; 3H-QNB-Binding KH (c), Table 4)?
A: 6000 nM

Q: And the “% H” value (M2 muscarinic receptors; Table 4)?
A: 100%

Q: And the “% H2” value (M2 muscarinic receptors; Table 5)?
A: 100%

Q: And the Ki (M1 muscarinic receptor [4]; +G (0.1 mM GppNHp), read-out: KH)?
A: 700 to 1000 nM

Q: What about the Ki (M1 muscarinic receptor [4]; +G (0.1 mM GppNHp), read-out: KL) of the same molecule?
A: 700 to 1000 nM

Q: And the Ki (M1 muscarinic receptor [4]; -G (without GppNHp), read-out: KH)?
A: 700 to 1000 nM

Q: What about the Ki (M1 muscarinic receptor [4]; -G, read-out: KL) of the same molecule?
A: 700 to 1000 nM

Q: And the “AC, % of carbachol effect” value ([5]; PC12 m4)?
A: 40%

Q: And the “effective concentration which induces the effect” value ([5]; PC12 m4, AC activity, footnote b)?
A: 0.1^b µM

Q: What about the “AC (adenylate cyclase activity)” value ([5]; PC12 m4, tested at 1mM) of the same molecule?
A: +

Q: What about the “slow AHP (Ca++-dependent K+ conductance)” value ([6]; applied topically by microdrops) of the same molecule?
A: block the slow AHP

Q: And the depolarization ([6]; applied topically by microdrops (AF150: 100 µM))?
A: not shown in the case of AF102B

Q: And the “% H” value (M1 muscarinic receptor [2])?
A: 100%

Q: What about the Ki (M1 muscarinic receptor [2]) of the same molecule?
A: 1000 nM

Q: What about the “block of oxotremorine-M-induced phosphoinositide hydrolysis” value [7] of the same molecule?
A: completely blocked

Q: And the “PI (phosphoinositides hydrolysis)” value ([7]; SK-N-SH m3, tested at 1mM)?
A: -

Q: What about the inhibition at 1000 µM ([7]; SK-N-SH, read-out: inhibition of the oxotremorine-M signal) of the same molecule?
A: 34%

Q: And the “stimulation of phosphoinositide hydrolysis” value ([7]; even at 1 mM)?
A: failed to stimulate phosphoinositide hydrolysis

Q: And the “%H (% of high affinity state)” value (muscarinic receptors; with Cu++ pretreatment (100 µM, 30 minutes))?
A: 26%

Q: What about the “%H (% of high affinity state)” value (muscarinic receptors; with Cu++ pretreatment (100 µM, 30 minutes), listed as 4) of the same molecule?
A: 26±5%

Q: What about the “%H (% of high affinity state)” value (muscarinic receptors; without pretreatment) of the same molecule?
A: 0%

Q: What about the “PI, % of carbachol effect” value (m1 receptors; CHO m1) of the same molecule?
A: 20%

Q: And the “effective concentration which induces the effect” value (m1 receptors; CHO m1, PI hydrolysis, footnote b)?
A: 30^b µM

Q: And the “PI (phosphoinositides hydrolysis)” value (m1 receptors; CHO m1, tested at 1mM)?
A: +

Q: What about the “% H1” value (M1 muscarinic receptor [8]) of the same molecule?
A: 100%
